Where “and” joins values, the source holds several entries; their conditions need not be identical. Equal entries are not always repeated. Marks after values point to notes of the source that are not given here. Square brackets hold non-standard residues; d marks the D form. Peptide text beside a SMILES is read from it. * marks the point of attachment. Phe(4-Cl) = N[C@@H](Cc1ccc(Cl)cc1)C(=O)O; HOOC(CH2)6CO = O=C(O)CCCCCCC(=O)*; hArg = N=C(N)NCCCC[C@H](N)C(=O)O; Nle = CCCC[C@H](N)C(=O)O; Octanoyl = CCCCCCCC(=O)*; Abu = CC[C@H](N)C(=O)O
How the values were obtained:
[1] = tested on: hGH-RH(1-29)NH2 induced GH release; experiment: Inhibition of GH release in superfused rat pituitary system; format: cell-based; settings: for GH response (% of control) 0 min / GH response (% of control) 30 min / GH response (% of control) 60 min / GH response (% of control) 90 min / GH response (% of control) 120 min: antagonist 30 nM; for GH response (% of control) 0 min: 1 nM hGH-RH(1-29)NH2 at 0 min; for GH response (% of control) 30 min: 1 nM hGH-RH(1-29)NH2 at 30 min; for GH response (% of control) 60 min: 1 nM hGH-RH(1-29)NH2 at 60 min; for GH response (% of control) 90 min: 1 nM hGH-RH(1-29)NH2 at 90 min; for GH response (% of control) 120 min: 1 nM hGH-RH(1-29)NH2 at 120 min; for endocrine antagonistic potency: inhibition of the GH release stimulated by hGH-RH(1-29)NH2 (in words): general statement, in vitro and in vivo
Method in brief: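 Dispersed rat pituitary cells in superfusion were preincubated 9 min with analog at various concentrations, then stimulated with 1 nM hGH-RH(1-29)NH2 for 3 min, repeated at 30, 60, 90, 120 min to gauge duration. GH measured by double-antibody RIA; net integrated responses expressed as percent of the initial 1 nM GH-RH response.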

[2] = tested on: GH-RH receptor isoforms on membrane fractions of human PC-3 prostate tumors; format: binding; settings: for binding affinities to the tumoral receptors for GH-RH (in words): general statement
From the text: Ligand competition assays with ^125I-labeled GH-RH antagonist JV-1-42 were used to determine the binding affinities of GH-RH analogs to the GH-RH receptor isoforms on membrane fractions of human PC-3 prostate tumors. The methods used have been described in detail (Halmos G, Schally A V, Varga J L, Plonowski A, Rekasi Z, Czompoly T, Proc Natl Acad Sci USA 97: 10555-10560, 2000; Halmos G, Schally A V, Czompoly T, Krupa M, Varga J L, Rekasi Z, J Clin Endocrinol Metab 87: 4707-4714, 2002), hereby incorporated by reference. Briefly, radioiodinated derivatives of JV-142 are prepared by the chloramine-T method. PC-3 tumors, grown as xenografts in nude mice, are used to prepare crude membranes. PC-3 membrane homogenates are incubated with [^125I]JV-142 and increasing concentrations (10^−12 to 10^−6 M) of nonradioactive antagonist peptides as competitors. The pellet is separated by centrifugation and counted for radioactivity in a gamma-counter. The final binding affinities are estimated by K1 (dissociation constant of the inhibitor-receptor complex) and are determined by the Ligand PC and McPherson computer programs of Munson and Rodbard (P. J. Munson and D. Rodbard, Anal. Biochem. […]: 220-239, 1980). Relative affinities (R.A.) compared to reference peptides such as JV-1-36 or JV-1-38, are calculated as the ratio of K1 of the reference peptide to the K, of the tested GH-RH antagonist.

[3] = tested on: PC-3 human prostate cancer xenografts; experiment: PC-3 xenografts in nude mice, Experiment 3: tumor growth; format: in vivo
Description: Male nude mice were implanted s.c. with 3 mm^3 pieces of PC-3 human hormone-independent prostate cancer tissue on both flanks. When tumors reached a volume of approximately 65 mm^3, the mice were divided into 7 experimental groups with 8 to 9 animals in each group and received single daily injections for 28 days as follows: 1. Control (vehicle solution); 2. JV-1-38 (10 μg/day s.c.); 3. Peptide 35 (10 μg/day s.c.); 4. Peptide 36 (10 μg/day s.c.); 5. Peptide 37 (10 μd/day s.c.); 6. Peptide 39 (10 μg/day s.c.); 7. Peptide 41 (10 μg/day s.c.). Tumor volumes were measured twice a week. The experiment was ended on day 28 by sacrificing the mice under Isofurane anesthesia. Resulting tumors were cleaned, weighed, and snapfrozen until further analyses. Trunk blood was collected from the abdominal aorta and serum was separated for RIA measurement of IGF-I. Statistical analyses of the measurement results were done by ANOVA followed by Fisher test; data are presented as the means±S.E.

[4] = 10 μg/day s.c., 28 days, vs control

CCCCCCCC(=O)N[C@@H](Cc1ccc(O)cc1)C(=O)N[C@H](CCCNC(=N)N)C(=O)N[C@@H](CC(=O)O)C(=O)N[C@@H](C)C(=O)N[C@H](C(=O)N[C@@H](Cc1ccc(Cl)cc1)C(=O)N[C@H](C(=O)N[C@@H](CC(N)=O)C(=O)N[C@@H](CCCNC(=N)N)C(=O)N[C@@H](Cc1ccc(O)cc1)C(=O)N[C@@H](CCCNC(=N)N)C(=O)N[C@@H](CCCCN)C(=O)N[C@H](C(=O)N[C@@H](CC(C)C)C(=O)N[C@@H](CC)C(=O)N[C@@H](CCC(N)=O)C(=O)N[C@@H](CC(C)C)C(=O)N[C@@H](CO)C(=O)N[C@@H](C)C(=O)N[C@@H](CCCNC(=N)N)C(=O)N[C@@H](CCCCN)C(=O)N[C@@H](CC(C)C)C(=O)N[C@@H](CC(C)C)C(=O)N[C@@H](CCC(N)=O)C(=O)N[C@@H](CC(=O)O)C(=O)N[C@H](C(=O)N[C@@H](CCCC)C(=O)N[C@H](CCCNC(=N)N)C(=O)N[C@@H](CCCCNC(=N)N)C(N)=O)[C@@H](C)CC)C(C)C)[C@@H](C)O)[C@@H](C)CC [Peptide 4, [CH3(CH2)6CO-Tyr^1, D-Arg^2, Phe(pCl)^6, Arg^9, Abu^15, Nle^27, D-Arg^28, Har^29]hGH-RH(1-29)NH2] (Octanoyl-Y[dR]DAI[Phe(4-Cl)]TNRYRKVL[Abu]QLSARKLLQDI[Nle][dR][hArg]-NH2)
GH response (% of control) 0 min [1]: 5 % of control | GH response (% of control) 30 min [1]: 0 % of control | GH response (% of control) 60 min [1]: 12 % of control | GH response (% of control) 90 min [1]: 8 % of control | GH response (% of control) 120 min [1]: 18 % of control | endocrine antagonistic potency: inhibition of the GH release stimulated by hGH-RH(1-29)NH2 (in words) [1]: high endocrine antagonistic potencies | Relative Affinities (R.A.) to membrane receptors on PC-3 human prostate cancers [2]: 53 | binding affinities to the tumoral receptors for GH-RH (in words) [2]: extremely high binding affinities

CCCC[C@H](NC(=O)[C@@H](NC(=O)[C@H](CC(=O)O)NC(=O)[C@H](CCC(N)=O)NC(=O)[C@H](CC(C)C)NC(=O)[C@H](CC(C)C)NC(=O)[C@H](CCCCN)NC(=O)[C@H](CCCNC(=N)N)NC(=O)[C@H](C)NC(=O)[C@H](CO)NC(=O)[C@H](CC(C)C)NC(=O)[C@H](CCC(N)=O)NC(=O)[C@H](CC)NC(=O)[C@H](CC(C)C)NC(=O)[C@@H](NC(=O)[C@H](CCCCN)NC(=O)[C@H](CCCNC(=N)N)NC(=O)[C@H](Cc1ccc(O)cc1)NC(=O)[C@H](CCCNC(=N)N)NC(=O)[C@H](CC(N)=O)NC(=O)[C@@H](NC(=O)[C@H](Cc1ccc(Cl)cc1)NC(=O)[C@@H](NC(=O)[C@H](C)NC(=O)[C@H](CC(=O)O)NC(=O)[C@@H](CCCNC(=N)N)NC(=O)[C@H](Cc1ccc(O)cc1)NC(=O)CCCCCCC(=O)O)[C@@H](C)CC)[C@@H](C)O)C(C)C)[C@@H](C)CC)C(=O)N[C@H](CCCNC(=N)N)C(=O)N[C@@H](CCCCNC(=N)N)C(N)=O [Peptide 5, [HOOC(CH2)6CO-Tyr^1, D-Arg^2, Phe(pCl)^6, Arg^9, Abu^15, Nle^27, D-Arg^28, Har^29]hGH-RH(1-29)NH2] ({HOOC(CH2)6CO}-Y[dR]DAI[Phe(4-Cl)]TNRYRKVL[Abu]QLSARKLLQDI[Nle][dR][hArg]-NH2)
GH response (% of control) 0 min [1]: 22 % of control | GH response (% of control) 30 min [1]: 20 % of control | GH response (% of control) 60 min [1]: 23 % of control | GH response (% of control) 90 min [1]: 27 % of control | GH response (% of control) 120 min [1]: 27 % of control | Relative Affinities (R.A.) to membrane receptors on PC-3 human prostate cancers [2]: 4 | binding affinities to the tumoral receptors for GH-RH (in words) [2]: extremely high binding affinities

[CH3(CH2)6CO-Tyr^1, D-Arg^2, Phe(pCl)^6, Ala^8, His^9, Tyr(Et)^10, His^11, Abu^15, Nle^27, D-Arg^28, Har^29]hGH-RH(1-29)NHEt [Peptide 97]
binding affinities to the tumoral receptors for GH-RH (in words) [2]: extremely high binding affinities

[PhAc-Tyr^1, D-Arg^2, Phe(pCl)^6, Har^9, Phe(pNH2)^10, Abu^15, Nle^27, D-Arg^28, Har^29]hGH-RH(1-29)NH2 [Peptide 37]
GH response (% of control) 0 min [1]: 33 % of control | GH response (% of control) 30 min [1]: 12 % of control | GH response (% of control) 60 min [1]: 15 % of control | GH response (% of control) 90 min [1]: 15 % of control | GH response (% of control) 120 min [1]: 19 % of control | endocrine antagonistic potency: inhibition of the GH release stimulated by hGH-RH(1-29)NH2 (in words) [1]: high endocrine antagonistic potencies | Tumor volume (mm^3) Final ([3]; 10 μg/day s.c., 28 days): 323 ± 68.0* mm^3 | Tumor volume doubling time ([3]; 10 μg/day s.c., 28 days): 12.7 ± 2.03 days | Tumor weight ([3]; 10 μg/day s.c., 28 days): 440 ± 104 mg | Tumor volume Final (% inhibition) [3, 4]: (57%) | Tumor weight (% inhibition) [3, 4]: (37%) | Tumor volume (mm^3) Initial ([3]; at start of treatment): 60.0 ± 13.0 mm^3

[PhAc-Tyr^1, D-Arg^2, Phe(pCl)^6, Har^9, Tyr(Me)^10, Abu^15, Nle^27, D-Arg^28, Agm^29]hGH-RH(1-29) [Peptide 52]
GH response (% of control) 0 min [1]: 86 % of control | GH response (% of control) 30 min [1]: 13 % of control | GH response (% of control) 60 min [1]: 45 % of control | GH response (% of control) 90 min [1]: 26 % of control | GH response (% of control) 120 min [1]: 55 % of control

[PhAc-Tyr^1, D-Arg^2, Phe(pCl)^6, Har^9, Tyr(Me)^10, Abu^15, Nle^27, D-Arg^28, Har^29, Agm^30]hGH-RH(1-30) [Peptide 60]
GH response (% of control) 0 min [1]: 73 % of control and 87 % of control | GH response (% of control) 30 min [1]: 27 % of control and 29 % of control | GH response (% of control) 60 min [1]: 34 % of control and 65 % of control | GH response (% of control) 90 min [1]: 56 % of control and 36 % of control | GH response (% of control) 120 min [1]: 42 % of control and 63 % of control

[PhAc-Tyr^1, D-Arg^2, Phe(pCl)^6, Har^9, Tyr(Me)^10, Aib^15, Nle^27, D-Arg^28, Har^29]hGH-RH(1-29)NHEt [Peptide 49]
GH response (% of control) 0 min [1]: 83 % of control | GH response (% of control) 30 min [1]: 76 % of control | GH response (% of control) 60 min [1]: 90 % of control | GH response (% of control) 90 min [1]: 87 % of control | GH response (% of control) 120 min [1]: 120 % of control

[PhAc-Tyr^1, D-Arg^2, Phe(pCl)^6, Har^9, Tyr(Me)^10, Amp^11, Abu^15, Nle^27, D-Arg^28, Har^29]hGH-RH(1-29)NH2 [Peptide 64]
GH response (% of control) 0 min [1]: 59 % of control | GH response (% of control) 30 min [1]: 54 % of control | GH response (% of control) 60 min [1]: 70 % of control | GH response (% of control) 90 min [1]: 50 % of control | GH response (% of control) 120 min [1]: 56 % of control

[PhAc-Tyr^1, D-Arg^2, Phe(pCl)^6, Har^9, Tyr(Me)^10, Har^11, Abu^15, Nle^27, D-Arg^28, Har^29]hGH-RH(1-29)NH2 [Peptide 63]
GH response (% of control) 0 min [1]: 53 % of control | GH response (% of control) 30 min [1]: 47 % of control | GH response (% of control) 60 min [1]: 49 % of control | GH response (% of control) 90 min [1]: 51 % of control

[PhAc-Tyr^1, D-Arg^2, Phe(pCl)^6, Har^9, Tyr(Me)^10, Orn^12, Abu^15, Nle^27, D-Arg^28, Har^29]hGH-RH(1-29)NHEt [Peptide 50]
GH response (% of control) 0 min [1]: 57 % of control | GH response (% of control) 30 min [1]: 65 % of control | GH response (% of control) 60 min [1]: 69 % of control | GH response (% of control) 90 min [1]: 74 % of control | GH response (% of control) 120 min [1]: 67 % of control

Source: US7452865B2, “Antagonistic analogs of GH RH (2003)” (The Administrare's of the Tulane Educational Fund, priority 2004, dated 2008)
